# Experimental data: ChEMBL document CHEMBL4613277, “Improving the Potency of N-Aryl-2,5-dimethylpyrroles against Multidrug-Resistant and Intracellular Mycobacteria” (ACS Med Chem Lett, 2020)
# Tested on: Mycobacterium tuberculosis
# Test: Antimycobacterial activity against Mycobacterium bovis BCG
# Format: functional
# Details: variant bovis BCG
row,Compound,MIC [µg/mL]
1,Cc1cc(CNC2CCCCC2)c(C)n1-c1ccc(Cl)cc1,0.4
2,Cc1cc(CNCc2ccccc2)c(C)n1-c1ccc(Cl)cc1,0.5
3,Cc1cc(CNCc2ccccc2)c(C)n1-c1ccc(F)cc1,0.5
4,COc1ccc(-n2c(C)cc(CNC3CCCCC3)c2C)cc1,0.25
5,Cc1cc(CNCc2ccccc2)c(C)n1-c1ccccc1C(F)(F)F,1
6,Cc1cc(CNC2CCCCC2)c(C)n1-c1cc(Cl)cc(Cl)c1,0.5
7,Cc1cc(CNC(C)c2ccccc2)c(C)n1-c1ccc(Cl)cc1 (stereo not given),0.5
8,Cc1cc(CN[C@H]2C[C@@H]3CC[C@H]2C3)c(C)n1-c1ccc(Cl)cc1,0.25
9,Cc1cc(CNC2CCCCC2)c(C)n1-c1ccccc1C(F)(F)F,2
10,Cc1cc(CNCc2ccccc2)c(C)n1-c1ccc(C(C)C)cc1,1
11,Cc1ccc(C)c(-n2c(C)cc(CNC3CCCCC3)c2C)c1,0.5
12,Cc1cc(CNC2CCCCC2)c(C)n1-c1ccccc1F,0.5
13,Cc1cc(CNC2CCCCC2)c(C)n1-c1ccc(C(C)C)cc1,0.25
14,Cc1cc(CNC2CCCCC2)c(C)n1-c1ccc(C#N)cc1,1
15,Cc1cc(CNC2CCCCC2)c(C)n1-c1ccc(F)cc1,0.5
16,Cc1cc(CNCC2CCCCC2)c(C)n1-c1ccc(Cl)cc1,0.125
17,Cc1cc(CNCCNc2ccccc2)c(C)n1-c1ccc(Cl)cc1,1
18,Cc1ccc(C)c(-n2c(C)cc(CNCc3ccccc3)c2C)c1,2
19,Cc1cc(CNCc2ccccc2)c(C)n1-c1cc(Cl)cc(Cl)c1,1

# Tested on: Mycobacterium tuberculosis
# Test: Antimycobacterial activity against Mycobacterium bovis BCG assessed as reduction in bacterial growth incubated for 48 hrs by HT-SPOTi assay
# Format: functional
# Details: variant bovis BCG
row,Compound,MIC [µg/mL]
1,Cc1cc(CNCC2CCCCC2)c(C)n1-c1ccc(Cl)cc1,1.95
